One data set has as its system BALB/c mice. The experiment in a line: In vivo acute toxicity, 7-day mortality. The conditions noted are these: single i.p. injection. The method, then:
Mice were administered with 20.0 and 40 mg/kg of nigrocin-HL and nigrocin-HLM (i.p.) and a 7-day mortality was recorded.
(§1) FIGURE 5 Toxicities of nigrocin-HL and its analog nigrocin-HLM in vitro and in vivo. Cytotoxicity of nigrocin-HL and nigrocin-HLM against (A) HaCaT and (B) 16HBE. Living cells after treatment with peptides were measured utilizing CCK8 assays, and viability was calculated relative to the untreated control. (C) Hemolysis of nigrocin-HL and nigrocin-HLM was determined against horse erythrocytes. All data represent mean ± SD from three independent experiments performed in triplicate (^∗P < 0.05, ^∗∗∗P < 0.001, compared with nigrocin-HL control group; ^###P < 0.001, compared with nigrocin-HLM control group). (D) In vivo toxicities of these two AMPs. Survival rate of mice in 7 days after single i.p. injection of nigrocin-HL and nigrocin-HLM (20 and 40 mg/kg) was recorded.

Data set [1] has as its system clinical MRSA strain DTMR121. The format is cell-based, methicillin-resistant S. aureus. The method, then: (§2) The antimicrobial activity of both natural and designed peptides was evaluated by MIC and MBC assays utilizing the broth dilution method. Microorganisms including S. aureus (NCTC10788), MRSA (NCTC 12493 and ATCC43300), Escherichia coli (E. coli) (NCTC 10418), Pseudomonas aeruginosa (P. aeruginosa) (ATCC 27853), Candida albicans (C. albicans) (NCYC 1467) and four clinical MRSA strains (DTMR8, DTMR24, DTMR37, and DTMR121) obtained at the First People’s Hospital of Zhenjiang, China were used. Molecular identification of these four clinical isolates was performed by PCR targeting mecA gene prior to use. After incubation of peptides (ranging from 1 μM to 512 μM, twofold serial dilution) and diluted microorganism cultures for 16 h, the absorbance values of the wells of the 96-well plates were detected at 550 nm with a Synergy HT plate reader (Biotech, United States) and the MICs were defined as the lowest concentration of peptides at which no apparent growth was detected. Ten microliters of culture in the wells were loaded onto Mueller-Hinton agar (MHA) medium and incubated at 37°C for another 18 h. The MBC of the peptide against a microbe was defined as the lowest concentration at which no evidence of colony growth was observed. Five replications were employed for all peptides with different concentrations and controls, and all measurements were made in triplicate.

Data set [2] relates to clinical MRSA strain DTMR24. The format is cell-based, methicillin-resistant S. aureus. How it is done:
as §2

A further data set deals with MRSA (NCTC12493). The format is cell-based, methicillin-resistant S. aureus. The conditions noted are these: NCTC12493, 16 h. How it is done: as §2
Data set [3] concerns clinical MRSA strain DTMR8. It is filed as cell-based, methicillin-resistant S. aureus. How it is done: as §2
The subject of data set [4] is clinical MRSA strain DTMR37. The format is cell-based, methicillin-resistant S. aureus. How it is done:
as §2

In the next data set the test system is MRSA (ATCC43300). The format is cell-based, methicillin-resistant S. aureus. The method, then:
as §2

Another data set deals with horse erythrocytes. The format is cell-based. How it is done: Hemolytic property of peptides was measured using erythrocytes prepared from defibrinated horse blood (TCS Biosciences, Botolph Claydon, Buckingham, United Kingdom) as indicated previously ([Wu et al., 2016]).
as §1

Another data set has as its system S. aureus (NCTC10788). It is filed as cell-based, Staphylococcus aureus. The conditions noted are these: for MIC: NCTC10788, 16 h; for MBC: NCTC10788, 18 h. How it is done:
as §2

Data set [5] has as its system human bronchial epithelial cell line 16HBE. It is filed as cell-based. How it is done:
(§3) Human keratinocyte cell line HaCaT and human bronchial epithelial cell line 16HBE were obtained from the ATCC. Cells were harvested and diluted to 5 × 10^4 cells/ml using fresh medium. Ninety-nine microliters of diluted cells and 1 μl of peptides (final concentration ranging from 1 to 512 μM, twofold serial dilution, five duplicates) were mixed and seeded into 96-well culture plates. After incubation for 24 h, 10 μl CCK-8 was added into each well, followed by incubation at 37°C for 2 h. Absorbance of each well was determined, and the viabilities of cells were calculated as percentages of the control.
as §1

Data set [6] deals with human keratinocyte cell line HaCaT. It is filed as cell-based. The method, then:
as §3, §1

The subject of a further data set is E. coli (NCTC10418). The format is cell-based, Escherichia coli. The conditions noted are these: for MIC: NCTC10418, 16 h. The method, then:
as §2

A further data set concerns C. albicans (NCYC1467). It is filed as cell-based, Candida albicans. The conditions noted are these: for MIC: NCYC1467, 16 h; for MBC: NCYC1467, 18 h. How it is done:
as §2

The next data set relates to mature MRSA biofilm. The format is cell-based, methicillin-resistant S. aureus. How it is done:
Minimum biofilm eradication concentration (MBEC) assay was carried out with a modified microtiter plate method as described previously ([Gao et al., 2017]).
FIGURE 4 Minimum biofilm eradication concentration (MBEC) of peptides against mature MRSA biofilm. All data represent means ± SD from three independent experiments performed in triplicate (^∗∗∗∗P < 0.0001 versus the viability of the corresponding concentration of nigrocin-HL).

Data set [7] has as its system P. aeruginosa (ATCC27853). The format is cell-based, Pseudomonas aeruginosa. The method, then:
as §2

Data set [8] in a line: Circular dichroism, percentage of α-helix by K2D3. The format is physicochemical. The conditions noted are these: CD 190-250 nm, 20°C, 50% TFE in 10 mM ammonium acetate buffer, 100 μM peptide (legend: 50 μM). The method, then:
Additionally, circular dichroism (CD) analyses were carried out utilizing a JASCO J815 Spectropolarimeter (JASCO Inc., United States). Samples were measured within the range of 190-250 nm at 20°C. The parameters were set as: 200 nm/min scanning speed, a bandwidth of 1 nm, and 0.5 nm data pitch. Both peptide samples were dissolved in […] ammonium acetate buffer and 50% TFE in 10 mM ammonium acetate buffer at a concentration of 100 μM. The percentage of the α-helix structure was predicted by the website […]^2 ([Louis-Jeune et al., 2012]).
Background: Circular dichroism is widely used to follow secondary structure.

Where a SMILES comes first, the peptide text is derived from it.

`CC[C@H](C)[C@H](NC(=O)CNC(=O)[C@H](CO)NC(=O)[C@H](CC(C)C)NC(=O)[C@H](CC(C)C)NC(=O)CN)C(=O)N[C@@H](CC(C)C)C(=O)NCC(=O)N[C@@H](C)C(=O)NCC(=O)N[C@@H](CCCCN)C(=O)N[C@@H](CCCCN)C(=O)N[C@H](C(=O)N[C@H](C(=O)N[C@@H](Cc1ccccc1)C(N)=O)C(C)C)[C@@H](C)CC` [Nigrocin-HLM] (H-GLLSGILGAGKKIVF-NH2): the 7-day mortality entry with BALB/c mice (20 mg/kg) and with BALB/c mice (40 mg/kg) was “no mortality was observed” each time. Further, the MIC in [1] (clinical strain DTMR121, 16 h) stood at 1 µM; in [2] (clinical strain DTMR24, 16 h), 1 µM; in the data set on MRSA (NCTC12493), 4 µM; in [3] (clinical strain DTMR8, 16 h) it was 1 µM; in data set [4] (clinical strain DTMR37, 16 h), 1 µM; with MRSA (ATCC43300) (ATCC43300, 16 h), 1 µM. In addition, the MIC is 2.94 µg/mL in the data set on S. aureus (NCTC10788); 11.77 µg/mL in the data set on E. coli (NCTC10418); 2.94 µg/mL in the data set on C. albicans (NCYC1467); 32 µM in data set [7] (ATCC27853, 16 h). The MBC in [1] (clinical strain DTMR121, 18 h) is 1.47/1.47 mg/l; in [2] (clinical strain DTMR24, 18 h) it was 1.47/1.47 mg/l; in [3] (clinical strain DTMR8, 18 h), 2.94 µg/mL; in data set [4] (clinical strain DTMR37, 18 h), 2.94 µg/mL; with MRSA (ATCC43300) (ATCC43300, 18 h) it was 5.89 µg/mL; with S. aureus (NCTC10788), 5.89 µg/mL. Further, the MBC in the data set with E. coli (NCTC10418) (NCTC10418, 18 h) amounted to 23.55 µg/mL; with C. albicans (NCYC1467) it was 5.89 µg/mL; in [7] (ATCC27853, 18 h), 32 µM. Also, the “concentration up to which devoid of hemolytic activity” value in the data set with horse erythrocytes was > 128 µM. Moreover, the “hemolytic activity (in words)” value with horse erythrocytes is listed as “negligible hemolytic activity”. For the same compound, the “lowest dosage at which cell growth inhibition occurred” value in data set [5] and in data set [6] was > 512 µM throughout. Moreover, the MBEC in the data set on mature MRSA biofilm was determined as 8 µM.
With `CC[C@H](C)[C@H](NC(=O)CNC(=O)[C@H](CO)NC(=O)[C@H](CC(C)C)NC(=O)[C@H](CC(C)C)NC(=O)CN)C(=O)N[C@@H](CC(C)C)C(=O)NCC(=O)N[C@@H](C)C(=O)NCC(=O)N[C@@H](CCCCN)C(=O)N[C@@H](CCCCN)C(=O)N[C@H](C(=O)N[C@H](C(=O)N[C@H]1CSSC[C@@H](C(=O)O)NC(=O)[C@H](CC(C)C)NC(=O)CNC(=O)[C@H](CO)NC(=O)[C@H](CC(C)C)NC(=O)CNC1=O)C(C)C)[C@@H](C)CC` [Nigrocin-HL] (HELM PEPTIDE1{G.L.L.S.G.I.L.G.A.G.K.K.I.V.C.G.L.S.G.L.C}$PEPTIDE1,PEPTIDE1,15:R3-21:R3$$$V2.0; N-terminus and C-terminus assumed), the 7-day mortality result in the data set with BALB/c mice (20 mg/kg) and in the data set on BALB/c mice (40 mg/kg) was “mice all died from day 3 to day 7” each time. Also, in data set [8], the “Helicity (%)” value was 31.28%. In addition, in the data set with horse erythrocytes, the “hemolytic activity (in words)” value is listed as “obvious hemolysis”. Further, the figures for the MIC with S. aureus (NCTC10788), in the data set on E. coli (NCTC10418) and with C. albicans (NCYC1467) were 62.70 µg/mL, 125.40 µg/mL and 62.70 µg/mL, respectively. For the same compound, the MBC with S. aureus (NCTC10788) stood at 250.81 µg/mL; in the data set with C. albicans (NCYC1467), 501.61 µg/mL. Further, the “lowest dosage at which cell growth inhibition occurred” value in [5] and in [6] was 32 µM each time. In addition, in the data set on mature MRSA biofilm, the MBEC is > 16 µM.
Turning to `CC[C@H](C)[C@H](NC(=O)CNC(=O)[C@H](CO)NC(=O)[C@H](CC(C)C)NC(=O)[C@H](CC(C)C)NC(=O)CN)C(=O)N[C@@H](CC(C)C)C(=O)NCC(=O)N[C@@H](C)C(=O)NCC(=O)N[C@@H](CCCCN)C(=O)N[C@@H](CCCCN)C(=O)N[C@H](C(=O)N[C@H](C(=O)O)C(C)C)[C@@H](C)CC` [Nigrocin-HLD] (H-GLLSGILGAGKKIV-OH; N-terminus and C-terminus assumed), the MIC stood at 42.43 µg/mL with S. aureus (NCTC10788), 84.87 µg/mL in the data set with E. coli (NCTC10418) and 42.43 µg/mL in the data set with C. albicans (NCYC1467). In addition, the results for the MBC in the data set on S. aureus (NCTC10788) and in the data set on C. albicans (NCYC1467) were 169.73 µg/mL and 339.46 µg/mL, respectively.

The MIC is the smallest concentration in the dilution series that meets the test's criterion for growth inhibition.

These data come from article PMC6280737, “Modification Targeting the “Rana Box” Motif of a Novel Nigrocin Peptide From Hylarana latouchii Enhances and Broadens Its Potency Against Multiple Bacteria” (Frontiers in Microbiology, 2018).
